Test results reported in ChEMBL document CHEMBL2429805, “Studies toward the development of new silicon-containing building blocks for the direct (18)F-labeling of peptides” (J Med Chem, 2013).

How the values were obtained:
Mus musculus [1] = assay: Biodistribution in tumor of NMRI nude mouse xenografted with human PC3 cells at 4.8 to 10.5 MBq after 60 to 105 mins by PET imaging analysis in presence of bombesin; type: ADME, organism-based, Neoplasm, PC-3; settings: in vivo
Mus musculus [2] = assay: Biodistribution in gallbladder of NMRI nude mouse xenografted with human PC3 cells at 4.8 to 10.5 MBq after 117 mins by gamma-counting analysis in presence of bombesin; type: ADME, organism-based, Gall bladder, PC-3; settings: in vivo, 1.95 h
Liver [3] = assay: Biodistribution in liver of NMRI nude mouse xenografted with human PC3 cells at 8.3 to 15.3 MBq after 117 mins by gamma-counting analysis; type: ADME, organism-based, PC-3; settings: in vivo, 1.95 h
Spleen [4] = assay: Biodistribution in spleen of NMRI nude mouse xenografted with human PC3 cells at 8.3 to 15.3 MBq after 117 mins by gamma-counting analysis; type: ADME, organism-based, PC-3; settings: in vivo, 1.95 h
Liver [5] = assay: Biodistribution in liver of NMRI nude mouse xenografted with human PC3 cells at 4.8 to 10.5 MBq after 117 mins by gamma-counting analysis in presence of bombesin; type: ADME, organism-based, PC-3; settings: in vivo, 1.95 h
Bone = assay: Biodistribution in bone of NMRI nude mouse xenografted with human PC3 cells at 8.3 to 15.3 MBq after 60 to 105 mins by PET imaging analysis; type: ADME, organism-based, Bone element, PC-3; settings: in vivo
Intestine [6] = assay: Biodistribution in intestine of NMRI nude mouse xenografted with human PC3 cells at 4.8 to 10.5 MBq after 117 mins by gamma-counting analysis in presence of bombesin; type: ADME, organism-based, PC-3; settings: in vivo, 1.95 h
Pancreas [7] = assay: Biodistribution in pancreas of NMRI nude mouse xenografted with human PC3 cells at 8.3 to 15.3 MBq after 117 mins by gamma-counting analysis; type: ADME, organism-based, PC-3; settings: in vivo, 1.95 h
Mus musculus [8] = assay: Biodistribution in tumor of NMRI nude mouse xenografted with human PC3 cells at 8.3 to 15.3 MBq after 60 to 105 mins by PET imaging analysis; type: ADME, organism-based, Neoplasm, PC-3; settings: in vivo
Mus musculus [9] = assay: Biodistribution in urinary bladder of NMRI nude mouse xenografted with human PC3 cells at 8.3 to 15.3 MBq after 60 to 105 mins by PET imaging analysis; type: ADME, organism-based, PC-3; settings: in vivo
Blood [10] = assay: Biodistribution in blood of NMRI nude mouse xenografted with human PC3 cells at 4.8 to 10.5 MBq after 117 mins by gamma-counting analysis in presence of bombesin; type: ADME, organism-based, PC-3; settings: in vivo, 1.95 h
Spleen [11] = assay: Biodistribution in spleen of NMRI nude mouse xenografted with human PC3 cells at 4.8 to 10.5 MBq after 117 mins by gamma-counting analysis in presence of bombesin; type: ADME, organism-based, PC-3; settings: in vivo, 1.95 h
Mus musculus [12] = assay: Biodistribution in tumor of NMRI nude mouse xenografted with human PC3 cells at 4.8 to 10.5 MBq after 117 mins by gamma-counting analysis in presence of bombesin; type: ADME, organism-based, Neoplasm, PC-3; settings: in vivo, 1.95 h
[13] = Stability of the compound in PBS buffer up to 2 hrs; type: physicochemical
Mus musculus [14] = assay: Biodistribution in gallbladder of NMRI nude mouse xenografted with human PC3 cells at 8.3 to 15.3 MBq after 117 mins by gamma-counting analysis; type: ADME, organism-based, Gall bladder, PC-3; settings: in vivo, 1.95 h
[15] = Ratio of biodistribution in tumor to blood of NMRI nude mouse xenografted with human PC3 cells at 4.8 to 10.5 MBq after 117 mins by gamma-counting analysis in presence of bombesin; type: ADME, organism-based, PC-3; settings: tumour, 1.95 h
Lung [16] = assay: Biodistribution in lung of NMRI nude mouse xenografted with human PC3 cells at 8.3 to 15.3 MBq after 117 mins by gamma-counting analysis; type: ADME, organism-based, PC-3; settings: in vivo, 1.95 h
Blood [17] = assay: Biodistribution in blood of NMRI nude mouse xenografted with human PC3 cells at 8.3 to 15.3 MBq after 117 mins by gamma-counting analysis; type: ADME, organism-based, PC-3; settings: in vivo, 1.95 h
Mus musculus [18] = assay: Biodistribution in prostate of NMRI nude mouse xenografted with human PC3 cells at 8.3 to 15.3 MBq after 117 mins by gamma-counting analysis; type: ADME, organism-based, Prostate gland, PC-3; settings: in vivo, 1.95 h
[19] = Lipophilicity, log D of the compound in 1-octanol/PBS buffer at pH 7.4 after 15 mins by shake flask method; type: physicochemical
Mus musculus [20] = assay: Biodistribution in abdominal region of NMRI nude mouse xenografted with human PC3 cells at 8.3 to 15.3 MBq after 60 to 105 mins by PET imaging analysis; type: ADME, organism-based, Abdomen, PC-3; settings: in vivo
Lung [21] = assay: Biodistribution in lung of NMRI nude mouse xenografted with human PC3 cells at 4.8 to 10.5 MBq after 117 mins by gamma-counting analysis in presence of bombesin; type: ADME, organism-based, PC-3; settings: in vivo, 1.95 h
Kidney [22] = assay: Biodistribution in kidney of NMRI nude mouse xenografted with human PC3 cells at 8.3 to 15.3 MBq after 117 mins by gamma-counting analysis; type: ADME, organism-based, PC-3; settings: in vivo, 1.95 h
Mus musculus [23] = assay: Biodistribution in prostate of NMRI nude mouse xenografted with human PC3 cells at 4.8 to 10.5 MBq after 117 mins by gamma-counting analysis in presence of bombesin; type: ADME, organism-based, Prostate gland, PC-3; settings: in vivo, 1.95 h
[24] = Ratio of biodistribution in tumor to blood of NMRI nude mouse xenografted with human PC3 cells at 8.3 to 15.3 MBq after 117 mins by gamma-counting analysis; type: ADME, organism-based, PC-3; settings: tumour, 1.95 h
Intestine [25] = assay: Biodistribution in intestine of NMRI nude mouse xenografted with human PC3 cells at 8.3 to 15.3 MBq after 117 mins by gamma-counting analysis; type: ADME, organism-based, PC-3; settings: in vivo, 1.95 h
Pancreas [26] = assay: Biodistribution in pancreas of NMRI nude mouse xenografted with human PC3 cells at 4.8 to 10.5 MBq after 117 mins by gamma-counting analysis in presence of bombesin; type: ADME, organism-based, PC-3; settings: in vivo, 1.95 h
Mus musculus [27] = assay: Biodistribution in tumor of NMRI nude mouse xenografted with human PC3 cells at 8.3 to 15.3 MBq after 117 mins by gamma-counting analysis; type: ADME, organism-based, Neoplasm, PC-3; settings: in vivo, 1.95 h
Kidney [28] = assay: Biodistribution in kidney of NMRI nude mouse xenografted with human PC3 cells at 4.8 to 10.5 MBq after 117 mins by gamma-counting analysis in presence of bombesin; type: ADME, organism-based, PC-3; settings: in vivo, 1.95 h

Drug uptake (Mus musculus [1]): Active
Drug uptake (Mus musculus [2]): 236 % ID/g
Drug uptake (Liver [3]): 4.4 % ID/g
Drug uptake (Spleen [4]): 0.57 % ID/g
Drug uptake (Liver [5]): 5.6 % ID/g
Drug uptake (Bone): Not Active
Drug uptake (Intestine [6]): 16 % ID/g
Drug uptake (Pancreas [7]): 10 % ID/g
Drug uptake (Mus musculus [8]): Active
Drug uptake (Mus musculus [9]): Active
Drug uptake (Blood [10]): 1.17 % ID/g
Drug uptake (Spleen [11]): 0.57 % ID/g
Drug uptake (Mus musculus [12]): 1.24 % ID/g
Stability [13]: Stable
Drug uptake (Mus musculus [14]): 194 % ID/g
Ratio [15]: 1.1
Drug uptake (Lung [16]): 0.65 % ID/g
Drug uptake (Blood [17]): 0.91 % ID/g
Drug uptake (Mus musculus [18]): 0.37 % ID/g
logD at 0.25 h [19]: 0.3
Drug uptake (Mus musculus [20]): Active
Drug uptake (Lung [21]): 1.4 % ID/g
Drug uptake (Kidney [22]): 1.7 % ID/g
Drug uptake (Mus musculus [23]): 0.7 % ID/g
Ratio [24]: 2
Drug uptake (Intestine [25]): 21 % ID/g
Drug uptake (Pancreas [26]): 3.4 % ID/g
Drug uptake (Mus musculus [27]): 1.8 % ID/g
Drug uptake (Kidney [28]): 2.1 % ID/g
Compound: CC(C)C[C@H](NC(=O)C[C@H](O)[C@H](CC(C)C)NC(=O)[C@H](Cc1cnc[nH]1)NC(=O)CN(C)C(=O)[C@@H](NC(=O)[C@H](C)NC(=O)[C@H](Cc1c[nH]c2ccccc12)NC(=O)[C@H](CCC(N)=O)NC(=O)CCCCNC(=O)[C@H](CS(=O)(=O)O)NC(=O)[C@H](CS(=O)(=O)O)NC(=O)Cc1ccc([Si]([18F])(C(C)(C)C)C(C)(C)C)cc1)C(C)C)C(N)=O
